The results in this text go back to patent publication US10801076B2, “Influenza A virus variants” (Vertex Pharmaceuticals Incorporated, priority 2014, dated 2020).

This test deals with A/Wisconsin/67/2005-p1. Put plainly: microbe, parasite or virus in culture. The format is cell-based, influenza A virus (H3N2). Particulars: Influenza A virus, MDCK, 72 h, read-out: Sensitivity to Compound 1 (EC50).

A word on the EC50: it is the concentration that produces a half-maximal response. With `O=C(O)[C@H]1C2CCC(CC2)[C@@H]1Nc1nc(-c2c[nH]c3ncc(F)cc23)ncc1F` [Compound 1], the EC50 came out at 2 nM.
